{
  "source": "patent US20090220490A1",
  "about": "“Compositions and Assays for Inhibiting HCV Infection” (priority 2006, published 2009)",
  "format_in_all_cases": "cell-based",
  "key": {"[1]": {"test_system": "endogenous AP-50 phosphorylation on Thr156", "assay": "confocal microscopy of AP-50 phosphoT156 in HCV-infected human hepatocyte cultures", "conditions": "HCV genotype 1-infected human hepatocyte cultures, 72 hr, epitope specific antibodies (FIG. 13D)", "description": "(§1) Fluorescent labels were observed using a triple-channel fluorescence microscope or a confocal microscope. Fluorochromes utilized included TOPRO-3 (blue), Alexa 488 (green) and Alexa 594 (red) (Molecular Probes). The percentage of HCV infected hepatocytes was determined by confocal microscopy using HCV E2 and core specific antibodies (Buck, et al., Mol. Cell. 8, 807 (2001); Rudel et al., Science 276, 1571 (1997). AP-50 and AP-50-phosphoT^157 were detected with specific antibodies (Zhang et al., Traffic 6, 1103 (2005); Smythe, Nature 431, 641 (2004)). At least 100 cells were analyzed per experimental point (Buck et al. EMBO J 20, 6712 (2001)). The nuclear morphology were analyzed by staining cells with TOPRO-3 ([…]). Two observers analyzed each immunofluorescent study.\n(§2) Primary hepatocytes were fixed with 50/50 acetone/methanol at −20° C. for 20 minutes and allowed to air dry at room temperature. Blocking of non-specific epitopes was done with PBS+3% BSA for 30 minutes at room temperature. Primary antibodies were used at 1:100 dilutions in PBS+3% BSA, for 1 hour at room temperature washes were done with PBS. […] At least 100 cells were analyzed per experimental point. We analyzed the nuclear morphology by staining cells with TO-PRO-3 (Molecular Probes). […]"}, "[2]": {"test_system": "HCV-infected human hepatocytes", "assay": "confocal microscopy of FITC-labelled peptide: cell entry and association with HCV E2", "description": "as §1, §2"}, "[3]": {"test_system": "human hepatocytes", "assay": "cell toxicity by release of lactic dehydrogenase (LDH) into the medium", "description": "Toxicity of AP-50 peptides to human hepatocyte cultures was determined by measuring lactic dehydrogenase (Sigma) in the medium."}, "[4]": {"test_system": "HCV genotype 4", "assay": "HCV replication (HCV RNA expression) in serum-derived HCV-infected human hepatocyte cultures", "conditions": "peptide 90 μM (text: picomolar), treated 4 hr after the HCV infection (FIG. 13F)", "source_text": "(§3) Sera from 25 HCV-infected patients and 3 control subjects were obtained at the VA San Diego Healthcare System Clinical Laboratory. The subject population included individuals with chronic HCV infection, viral load>200,000 IU/ml and genotypes 1 (N: 15), 2 (N: 3), 3 (N: 4), or 4 (N: 3), but negative for Hepatitis A and B, CMV and HIV. Control sera were obtained from subjects negative for Hepatitis A, B and C, CMV and HIV. In different experiments, the inoculums fluctuated between 3,728 and 68,000 HCV viral particles.\n(§4) The hepatocytes were cultured for serum-derived HCV infection under the following conditions: 1) the matrix was rat-tail collagen (BD); 2) the collagen matrix was prepared within 24 hr of hepatocyte plating, at a concentration of 50 μg/ml or greater; 3) the culture plates were coated with polylysine; 4) the rinsing of the matrix was minimal; 5) the suspended hepatocytes were allowed to attach in 20% fetal calf serum for not more than 18 hr; 6) the hepatocyte-specific media was given for at least 24 hr prior to the HCV infection; 7) the hepatocytes were >85% confluent until the time of infection; 8) hepatocyte cultures with >5% apoptosis by annexin-V assays and/or increases>3-fold in ALT were discarded; and 9) hepatocyte media was added every 48 hr.\n(§5) Total RNA was isolated from HCV infected primary human hepatocytes using the Ultraspec TM-II RNA kit from Biotecx Inc. (Texas) following the manufacturers protocol. The cDNA synthesis was performed using Stratascript RT MMuLV RNAse H free and Stratascript RT buffer (Stratagene), per manufacturers protocol, using:\n(§6) PCR was performed on the cDNA using the cDNA reaction mixture with Qiagen's HotStar High Fidelity polymerase. Amplicons were run on 2% TBE agarose gels and imaged on a KODAK Imaging station."}, "[5]": {"test_system": "HCV genotype 1", "assay": "HCV replication (HCV RNA expression) in serum-derived HCV-infected human hepatocyte cultures", "source_text": "as §3, §4, §5, §6"}, "[6]": {"test_system": "HCV genotype 3", "assay": "HCV replication (HCV RNA expression) in serum-derived HCV-infected human hepatocyte cultures", "conditions": "peptide 90 μM (text: picomolar), treated 4 hr after the HCV infection (FIG. 13F)", "source_text": "as §3, §4, §5, §6"}},
  "note": "“Also recorded” adds a separate entry of the source. Where a SMILES comes first, the peptide text is derived from it. The star is where a group is joined. FITC = O=C1OC2(c3ccc(O)cc3Oc3cc(O)ccc32)c2ccc(NC(=S)*)cc21",
  "data": [
    {"smiles": "CC(C)[C@H](NC(=O)[C@H](CCC(N)=O)NC(=O)[C@H](CCCNC(=N)N)NC(=O)[C@H](CCCNC(=N)N)NC(=O)[C@H](CCCNC(=N)N)NC(=O)[C@H](CCC(N)=O)NC(=O)[C@H](CCCNC(=N)N)NC(=O)[C@H](CCCNC(=N)N)NC(=O)[C@H](CCCCN)NC(=O)[C@H](CCCCN)NC(=O)[C@H](CCCNC(=N)N)NC(=O)CNC(=O)[C@H](Cc1ccc(O)cc1)NC(=O)CNC(=O)CNC(=O)CNC(=O)CNC(=S)Nc1ccc2c(c1)C(=O)OC21c2ccc(O)cc2Oc2cc(O)ccc21)C(=O)N[C@@H](C)C(=O)NCC(=O)N[C@@H](CCC(N)=O)C(=O)O", "note": "[AP-50 peptide] ({FITC}-GGGGYGRKKRRQRRRQVAGQ-OH; N-terminus and C-terminus assumed)", "values": [
      {"measurement": "phosphorylation of endogenous AP-50 on Thr156", "setting": "[1]", "value": "inhibited the phosphorylation; also recorded: blocked phosphorylation"},
      {"measurement": "association with HCV E2 in cells (confocal microscopy, merge)", "setting": "[2]; HCV-infected human hepatocytes, 72 hr (FIG. 13B)", "value": "associated with HCV E2"},
      {"measurement": "cell permeability (intracellular FITC fluorescence)", "setting": "[2]; human hepatocytes, 72 hr, HCV genotype 1 (FIG. 13B)", "value": "cell permeable; also recorded: intracellular"},
      {"measurement": "LDH values / viability of HCV-infected hepatocytes treated with peptide", "setting": "[3]; human hepatocytes infected with HCV genotypes 1, 3 or 4, 72 hr, relative to control (FIG. 14)", "value": "improving the viability; also recorded: normalized"},
      {"measurement": "cellular toxicity (LDH release into the medium)", "setting": "[3]; human hepatocytes treated with peptide for 72 hr (FIG. 14)", "value": "not toxic"},
      {"measurement": "HCV replication, detected by expression of HCV RNA at 72 hr", "setting": "[4]", "value": "inhibited HCV replication"},
      {"measurement": "HCV replication, detected by expression of HCV RNA", "setting": "[5]; peptide 90 pM, 72 hr, given at time zero of the infection (FIG. 13E)", "value": "blocked HCV replication; also recorded: inhibited HCV replication"},
      {"measurement": "HCV replication, detected by expression of HCV RNA at 72 hr", "setting": "[5]; peptide 90 μM (text: picomolar), treated 4 hr after the HCV infection (FIG. 13F)", "value": "inhibited HCV replication"},
      {"measurement": "HCV replication, detected by expression of HCV RNA at 72 hr", "setting": "[6]", "value": "inhibited HCV replication"}
    ]}
  ]
}
